Paper PMC11946789, “Two Amino Acid Substitutions Improve the Pharmacological Profile of the Snake Venom Peptide Mambalgin” (Toxins, 2025)
Bridges are numbered along the chain shown (N, C = ends). Where no end group is shown, it is not given here.

Key:
[1] = test system: heteromeric rat ASIC1a/3 channels (rASIC1a/3); experiment: TEVC recordings, heteromeric rASIC1a/3; type: cell-based; details: for inhibition of rASIC1a/3: 100 nM, pH 5.5 stimulus, conditioning pH 7.4, % of control currents, n = 5, p < 0.05 Mamb-AL vs Mamb, unpaired t-test
Description: Figure 4 The inhibitory effect of Mamb-AL on other ASIC1-containing channels exceeds that of Mamb. (A,C) Representative current traces showing the effects of various concentrations of Mamb (left panels) and Mamb-AL (right panels) on homomeric rat ASIC1b (rASIC1b) (A) and heteromeric rat ASIC1a/3 (rASIC1a/3) channels (C). Currents were evoked by a pH 5.5 stimulus following a conditioning pH of 7.4, with peptides applied for 30 s prior to the pH stimulus. (B) Dose–response curves for the inhibitory effects of Mamb and Mamb-AL on rASIC1b. Each data point represents measurements from 5 to 7 cells. (D) Bar graph quantifying the inhibitory effects of Mamb and Mamb-AL on rASIC1a/3, shown as a percentage of the corresponding control currents (n = 5). Data are presented as mean ± SEM; * p< 0.05, unpaired t-test. […] Data are shown as mean ± SEM; ns indicates no significant difference vs. control (dotted horizontal line), paired t-test.
Female X.laevis frogs were anesthetized with 0.17% ethyl 3-amino-benzoate methane sulfonate (MS222). A small ovarian section was surgically removed via an abdominal incision and placed in ND96 medium (96 mM NaCl, 2 mM KCl, 1.8 mM CaCl2, 1 mM MgCl2, and 5 mM HEPES, pH 7.4, adjusted with NaOH). […] Each animal underwent surgeries at intervals of no less than three months. Connective tissue and follicular sheaths were removed by incubating ovarian tissue in calcium-free ND96 medium containing collagenase (1 mg/mL) for 2 h at 21 °C. Healthy, mature stage IV and V oocytes were selected and stored in ND96 medium. […]
(§1) Whole-cell ASIC currents were measured using the two-electrode voltage clamp (TEVC) method with a GeneClamp 500 amplifier (Axon Instruments, Union City, NJ, USA). […]
(§2) Electrophysiological and behavioral data were analyzed using OriginPro 8.6.0 (OriginLab, Washington, DC, USA). […] Statistical significance between the Mamb and Mamb-AL groups was determined using an unpaired t-test. […]

[2] = test system: homomeric rat ASIC3 channels; experiment: TEVC recordings, homomeric ASIC3; type: cell-based; details: pH stimulus; n = 5; ns vs control, paired t-test
Description: Figure 4 The inhibitory effect of Mamb-AL on other ASIC1-containing channels exceeds that of Mamb. (A,C) Representative current traces showing the effects of various concentrations of Mamb (left panels) and Mamb-AL (right panels) on homomeric rat ASIC1b (rASIC1b) (A) and heteromeric rat ASIC1a/3 (rASIC1a/3) channels (C). Currents were evoked by a pH 5.5 stimulus following a conditioning pH of 7.4, with peptides applied for 30 s prior to the pH stimulus. (B) Dose–response curves for the inhibitory effects of Mamb and Mamb-AL on rASIC1b. Each data point represents measurements from 5 to 7 cells. (D) Bar graph quantifying the inhibitory effects of Mamb and Mamb-AL on rASIC1a/3, shown as a percentage of the corresponding control currents (n = 5). Data are presented as mean ± SEM; * p< 0.05, unpaired t-test. […] Data are shown as mean ± SEM; ns indicates no significant difference vs. control (dotted horizontal line), paired t-test. […]
as §1, §2

[3] = test system: acetic acid-induced writhes; experiment: Acetic acid-induced writhing pain test; type: in vivo, male ICR mice; details: for decrease in number of writhes: 90 min before i.p. 0.6% acetic acid, 15 min, n = 8, vs saline control (41 ± 8 writhes); for number of writhes (result in words): 0.01 and 0.1 mg/kg, 90 min prior to testing
Description: ASIC channels play a critical role in the perception of acid-induced pain [8, 38]. As effective inhibitors of ASIC1-containing channels, Mamb and Mamb-AL could serve as potential therapeutics for this type of pathology. To evaluate this hypothesis, we employed the acetic acid-induced writhing test as an in vivo model of acute pain. In this model, intraperitoneal administration of 0.6% acetic acid provokes a stereotypical behavior in mice characterized by abdominal contractions (acetic acid-induced writhes).
Figure 5 Analgesic effect of peptides Mamb and Mamb-AL in an acute pain model. Peptides were administered intramuscularly 90 min before testing. Their efficacy was assessed using the acetic acid-induced writhing test, where the number of writhes was counted after intraperitoneal administration of 0.6% acetic acid. Results are presented as mean ± SD (n = 8 for each group). Statistical analysis was performed using one-way ANOVA followed by Dunnett’s post hoc test. * p< 0.05, ** p< 0.01, *** p< 0.005, **** p< 0.001 indicate significant differences compared with the control group, and ns indicates no significant difference.
The number of writhes in the control group treated with saline was 41 ± 8. Administration of wild-type peptide at doses of 0.01 and 0.1 mg/kg decreased the number of writhes by approximately 29% and 27%, respectively.
Adult (8–10 weeks) male ICR mice (25–30 g, Animal Breeding Facility Branch of the Shemyakin–Ovchinnikov Institute of Bioorganic Chemistry, Russian Academy of Sciences, Pushchino, Russia) were housed in Type 3 standard polycarbonate cages (820 cm^2) with LIGNOCEL BK 8/15 bedding (JRS, Rosenberg, Germany) under controlled conditions (23 ± 2 °C, 12h light–dark cycle) with ad libitum access to food and water. Test substances were dissolved in saline and administered intramuscularly 90 min before testing. The visceral pain assay was performed as described by. Distinct groups (n = 8 for each group) of mice were administered with 0.6% acetic acid in saline intraperitoneally (i.p.). Writhing behavior was recorded for 15 min after the mice were placed in transparent glass cylinders. A blinded observer assessed the responses. No formal power analysis was performed prior to the experiments, as the effect size and variability of the peptide treatment were unknown. However, because the initial results were highly significant, no additional animals were used. No animals were excluded from the analysis. Peptides (Mamb and Mamb-AL) were compared with a saline control group using analysis of variance (ANOVA) with post hoc Dunnett’s test. Data are presented as mean ± standard deviation (SD).

ASIC = experiment: TEVC recordings, ASIC1-containing channel not specified; type: cell-based, rat; details: channel and pH not given; for Hill coefficient: Hill equation fit
Procedure: Whole-cell ASIC currents were measured using the two-electrode voltage clamp (TEVC) method with a GeneClamp 500 amplifier (Axon Instruments, Union City, NJ, USA). The holding potential maintained at –50 mV. Glass microelectrodes (0.5–2.5 MΩ) were filled with 3 M KCl solution, and ND96 (pH 7.4) was used as the external bath solution. ASIC currents were activated by rapidly switching the external solution from ND96 to either ND96 containing 10 mM MOPS (pH 6.7) or ND96 containing 10 mM MES (pH 5.5). Solution exchange was controlled using a custom-built computer-driven valve system. Data were filtered at 10 Hz and digitized at 100 Hz using an L780M ADC (LCard, Moscow, Russia). Peptides Mamb and Mamb-AL were applied for 30 s at pH 7.4 prior to acid stimulation of the channels.
Electrophysiological and behavioral data were analyzed using OriginPro 8.6.0 (OriginLab, Washington, DC, USA). […] The rate of current decay was fitted using a single exponential decay function: F(x) = A*eˆ(−x/τdes) + A0, where A0 is the minimal current response and τdes is the decay constant. Statistical significance between the Mamb and Mamb-AL groups was determined using an unpaired t-test. Data are presented as mean ± SEM.

| Sequence | inhibition of rASIC1a/3 [1] | effect on rat ASIC3 channels [2] | decrease in number of writhes ([3]; 0.01 mg/kg intramuscular) | decrease in number of writhes ([3]; 0.1 mg/kg intramuscular) | number of writhes (result in words) [3] | Hill coefficient (ASIC) | increase in inhibition of heteromeric ASIC1a/3 channels ([1]; compared with Mamb) | analgesic effect relative to wild-type Mamb ([3]; 0.01 and 0.1 mg/kg intramuscular) | maximum inhibition (in words) (ASIC; compared with wild-type peptide) |
| --- | --- | --- | --- | --- | --- | --- | --- | --- | --- |
| LKCFQHGKVVTCHRDMKFCYHNTGMPFRNLKLILQGCSSSCSETENNKCCSTDRCNK (disulfide 3-19, 12-37, 41-49, 50-55 (inferred)) [Mamb] | 13% | neither wild-type Mamb nor Mamb-AL exhibited any detectable effects | approximately 29% | ~27% | significantly reduced the number of writhes | 1.54 ± 0.03 | – | – | – |
| LKCYQHGKVVTCHRDAKFCYHNTGLPFRNLKLILQGCSSSCSETENNKCCSTDRCNK (disulfide 3-19, 12-37, 41-49, 50-55 (inferred)) [Mamb-AL] | 32% | neither wild-type Mamb nor Mamb-AL exhibited any detectable effects | ~ 41% | ~ 34% | significantly reduced the number of writhes | 1.4 ± 0.1 | two-fold increase | trend toward a stronger analgesic effect than the wild-type Mamb | unable to fully block channel activity, leading to a reduced maximum inhibition rate |
